# Results reported in US9108930B2, “N1- and N2-carbamoyl-1,2,3-triazole serine hydrolase inhibitors and methods” (The Scripps Research Institute, priority 2011, dated 2015).
# Where “and” joins values, the source holds several entries; their conditions need not be identical. Equal values may be shown once.
# Key:
# [1] = target: T1, APEH (Mus musculus, UniProt Q8R146); experiment: Gel-based competitive ABPP, mouse T-cell proteome in vitro; format: biochemical
# T1 sequence (Q8R146 1-732): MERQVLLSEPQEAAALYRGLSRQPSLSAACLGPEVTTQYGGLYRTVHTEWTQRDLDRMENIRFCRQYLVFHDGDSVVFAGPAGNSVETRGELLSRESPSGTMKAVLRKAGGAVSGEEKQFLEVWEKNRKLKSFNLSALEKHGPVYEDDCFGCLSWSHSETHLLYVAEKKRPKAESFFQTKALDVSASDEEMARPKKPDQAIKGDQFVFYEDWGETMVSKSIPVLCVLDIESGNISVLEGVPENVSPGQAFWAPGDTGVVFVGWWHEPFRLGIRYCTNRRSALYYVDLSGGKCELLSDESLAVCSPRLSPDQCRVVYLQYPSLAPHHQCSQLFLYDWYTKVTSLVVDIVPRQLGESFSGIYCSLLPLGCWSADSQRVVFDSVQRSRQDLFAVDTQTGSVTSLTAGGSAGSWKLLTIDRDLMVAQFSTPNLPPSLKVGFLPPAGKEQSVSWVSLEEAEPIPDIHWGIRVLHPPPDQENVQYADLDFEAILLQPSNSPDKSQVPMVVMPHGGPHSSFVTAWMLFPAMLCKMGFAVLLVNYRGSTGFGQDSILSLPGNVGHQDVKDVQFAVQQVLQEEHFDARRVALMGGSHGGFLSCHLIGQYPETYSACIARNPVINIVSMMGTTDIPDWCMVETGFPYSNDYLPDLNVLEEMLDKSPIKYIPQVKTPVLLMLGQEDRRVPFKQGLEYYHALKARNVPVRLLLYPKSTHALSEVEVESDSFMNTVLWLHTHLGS
# Protocol: The carbamoyl triazole regioisomers were separated by gel chromatography and used for subsequent experiments. […] The compounds were screened at concentrations of 10 and 100 nM in mouse T-cell proteomes (FIG. 3e and FIG. 12).
# Gel-based competitive ABPP experiments were performed as described previously. For competitive ABPP with FP-rhodamine, proteomes (1 mg/mL in PBS) were treated with FP-rhodamine (2 μM final concentration) in a […] total reaction volume. After 30 minutes at 25° C., the reactions were quenched with 2×SDS-PAGE loading buffer.
# Proteomes were incubated with inhibitors for 30 minutes at 37° C. (in vitro) or for 4 h at 37° C. (in situ) at the indicated concentrations (n=3) prior to FP-rhodamine labeling. After SDS-PAGE and in-gel visualization, the percentage enzymatic activity remaining was determined by measuring the integrated optical intensity of the bands using IMAGER® software. IC50 values were determined from a dose-response curve generated using PRISM® software (GraphPad).
# [2] = test system: serine hydrolases (SHs) in mouse brain and heart; experiment: In vivo selectivity across SHs in tissues of treated mice (gel-based ABPP, ABPP-SILAM)
# Protocol: The potency and selectivity of 1,2,3-triazole ureas in vivo also was investigated. Mice were treated with the APEH inhibitor AA74-1 at various doses (0.2-1.6 mg/kg; PEG300 or 18:1:1 saline/ethanol/emulphor intraperitoneally) and sacrificed after 4 h. Brains and hearts were removed, homogenized, and analyzed by gel-based competitive ABPP. […] Finally, the possibility of extending ABPP-SILAC for the characterization of inhibitor selectivity in vivo was explored by taking advantage of recently described protocols for stable isotope labeling in mammals (SILAM). In this approach, brain tissues from vehicle- and AA74-1-treated mice were separately mixed with equivalent amounts of brain tissue from ‘heavy’ amino acid-fed mice, and the samples were then labeled with FP-biotin, enriched by avidin chromatography, analyzed by LC-MS, and SH activities quantified by measuring the ratio-of-ratios for observed peptide signals. […] The ratio-of-ratio signals for APEH indicated greater than 90% inhibition of this enzyme in AA74-1-treated animals (FIG. 5b, top), consistent with average spectral count values (14 and 1 spectral counts for APEH in vehicle-treated versus AA74-1-treated mice, respectively; FIG. 5b, bottom). […] ACHE, an enzyme that is targeted by other reported NHU inhibitors, was not inhibited by AA74-1 in either mouse brain (FIG. 5b) or transfected cell (FIG. 16) proteomes.
# [3] = target: T1, APEH; experiment: ABPP-SILAC in living mouse T-cells; settings: 3 nM inhibitor, 4 h
# [4] = test system: N-terminally modified proteins (APEH substrates) in mouse T-cells; experiment: SILAC-based N-terminal labeling and enrichment in mouse T-cells
# [5] = target: T2, ABHD6 (Mus musculus, UniProt Q8R2Y0); experiment: ABPP-SILAC in Neuro2A cells; settings: about 4 hours; 25 nM
# T2 sequence (Q8R2Y0 1-336): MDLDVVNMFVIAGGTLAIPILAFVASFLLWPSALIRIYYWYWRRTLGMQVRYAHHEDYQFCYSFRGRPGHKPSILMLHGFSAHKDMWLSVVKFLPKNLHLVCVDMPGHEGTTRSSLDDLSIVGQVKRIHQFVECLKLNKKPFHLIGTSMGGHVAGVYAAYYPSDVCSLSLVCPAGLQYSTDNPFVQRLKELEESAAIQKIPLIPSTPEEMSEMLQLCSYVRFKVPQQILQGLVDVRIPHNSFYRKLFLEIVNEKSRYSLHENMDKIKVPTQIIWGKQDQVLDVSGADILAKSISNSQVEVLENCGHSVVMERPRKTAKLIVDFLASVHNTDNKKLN
Compound,inhibition of APEH ([1]; 10 nM),"IC50 ([1]; IC50 for APEH, in vitro, 30 minutes at 37° C., mouse)","SHs inhibited among 44 SHs identified in brain (ABPP-SILAM) ([2]; 0.8 mg/kg, i.p.)","additional SH targets by gel-based ABPP ([2]; brain and heart, 0.2-1.6 mg/kg i.p., 4 h)",APEH activity blocked [3],changes in N-terminal labeling signals of five N-terminally acetylated proteins ([4]; 1 nM),number of proteins with consistent two-fold or greater reductions in N-terminal labeling signals ([4]; 1 nM versus DMSO),ABHD6 activity blocked [5]
CC(C)CC(O)(CC(C)C)c1cnn(C(=O)N2CCCC2)n1 [AA74-1],completely inhibited APEH,5 nM and 3 nM,only APEH was inhibited,No additional SH targets were observed,> 95% and > 97%,2.5 to 4.6 fold,25 proteins,
COc1ccc(-c2ccc(-c3cn(C(=O)N4CCCCC4c4ccccc4)nn3)cc2)cc1 (centres unmarked) [KT195],,,,,,,,> 90%
